Test results published in patent US10501518B2 (priority 2013, dated 2019).
Where two headings read alike, the source gives them in different places. Starred links: 1 amine or outer side, 2 acyl side, 3 side chain; linkers in the order of their positions; H or OH if unused. Non-standard residues stand in square brackets, D forms with d. Residues, ends and D or L forms follow the SMILES beside them. X13 = O=C([C@H]1CNC[C@@H]1N[*:1])[*:2]; β3hA = C[C@H](N)CC(=O)O

What was measured:
[1] = target: T1, WT human PTHR-1 (Homo sapiens, UniProt Q03431); experiment: cAMP GloSensor dose-response in GP-2.3 cells expressing human PTHR-1; format: cell-based; details: for Fold PTH, nM (hPTHR1): EC50 relative to PTH(1-34)
T1 construct: bioactivity of the resulting compound in full-length hPTHR-1 and a truncated version; expressed in transfected cells
T1 sequence (Q03431 27-593): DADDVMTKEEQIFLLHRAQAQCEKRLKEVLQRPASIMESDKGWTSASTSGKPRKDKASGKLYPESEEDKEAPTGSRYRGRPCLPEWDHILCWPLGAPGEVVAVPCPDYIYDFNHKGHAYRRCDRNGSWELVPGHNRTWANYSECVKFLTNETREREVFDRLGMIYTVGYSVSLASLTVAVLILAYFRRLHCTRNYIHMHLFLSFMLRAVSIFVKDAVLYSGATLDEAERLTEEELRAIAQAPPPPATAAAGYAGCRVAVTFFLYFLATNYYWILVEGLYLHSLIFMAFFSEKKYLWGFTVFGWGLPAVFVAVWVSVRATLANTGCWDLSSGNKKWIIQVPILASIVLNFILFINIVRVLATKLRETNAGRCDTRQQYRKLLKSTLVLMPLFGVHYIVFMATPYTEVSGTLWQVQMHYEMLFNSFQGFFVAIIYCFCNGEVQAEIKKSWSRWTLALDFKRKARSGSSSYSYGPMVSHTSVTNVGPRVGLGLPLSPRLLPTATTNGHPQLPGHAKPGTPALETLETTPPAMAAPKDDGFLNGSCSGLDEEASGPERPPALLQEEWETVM
How it was run: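 Confluent cells preloaded with 0.5 mM d-luciferin at room temperature until luminescence baseline stabilised (30 min), then given varying agonist concentrations. Luminescence time course recorded after α/β-peptide addition. Means ±SEM of n>4 experiments, each in duplicate.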

[2] = target: T2, delNT PTHR1 (Homo sapiens, UniProt Q03431, DEL24-181); experiment: cAMP-inducing potency at truncated receptor delNT PTHR1; format: cell-based; details: Table 8; EC50 relative to PTH(1-34)
T2 construct: expressed in transfected cells
T2 sequence (Q03431 with tags, fused parts or gaps DEL24-181): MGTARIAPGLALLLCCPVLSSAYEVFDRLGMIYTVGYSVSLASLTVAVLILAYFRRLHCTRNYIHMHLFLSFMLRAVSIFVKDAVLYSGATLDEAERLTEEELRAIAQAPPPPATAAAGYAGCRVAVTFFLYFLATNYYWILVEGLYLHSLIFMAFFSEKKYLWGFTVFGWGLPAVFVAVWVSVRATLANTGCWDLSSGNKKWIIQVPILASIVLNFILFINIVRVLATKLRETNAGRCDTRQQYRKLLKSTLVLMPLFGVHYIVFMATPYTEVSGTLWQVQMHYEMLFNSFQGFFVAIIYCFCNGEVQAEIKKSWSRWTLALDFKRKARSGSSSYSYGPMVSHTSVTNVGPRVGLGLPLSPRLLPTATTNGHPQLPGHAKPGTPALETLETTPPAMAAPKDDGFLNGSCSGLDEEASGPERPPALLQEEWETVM

[3] = test system: PTH2R/PTH1R; experiment: cAMP response selectivity between PTH2R and PTH1R; format: cell-based; details: Table 16; most selective
From the text: Selected analogs containing beta-amino acid substitutions selectively signal through one or the other of the two receptors. Without being bound to any underling biological phenomenon or mechanism, PTHR-2 likely serves an alternative function to PTHR-1 as it is highly expressed in the central nervous system. In contrast, PTHR-1 is highly expressed in bone and kidney, but not in the CNS. The analogs disclosed herein are thus useful as therapeutic compounds that a specific agonists or antagonists of PTHR-1 and PTHR-2.

[4] = target: T3, WT rat PTHR-1 (Rattus norvegicus, UniProt P25961); experiment: cAMP GloSensor dose-response in GR-35 cells expressing rat PTHR-1; format: cell-based; details: Table 7; GR-35 cells, 12-16 minutes after ligand addition; mean ± SEM
T3 construct: expressed in transfected cells
T3 sequence (P25961 27-591): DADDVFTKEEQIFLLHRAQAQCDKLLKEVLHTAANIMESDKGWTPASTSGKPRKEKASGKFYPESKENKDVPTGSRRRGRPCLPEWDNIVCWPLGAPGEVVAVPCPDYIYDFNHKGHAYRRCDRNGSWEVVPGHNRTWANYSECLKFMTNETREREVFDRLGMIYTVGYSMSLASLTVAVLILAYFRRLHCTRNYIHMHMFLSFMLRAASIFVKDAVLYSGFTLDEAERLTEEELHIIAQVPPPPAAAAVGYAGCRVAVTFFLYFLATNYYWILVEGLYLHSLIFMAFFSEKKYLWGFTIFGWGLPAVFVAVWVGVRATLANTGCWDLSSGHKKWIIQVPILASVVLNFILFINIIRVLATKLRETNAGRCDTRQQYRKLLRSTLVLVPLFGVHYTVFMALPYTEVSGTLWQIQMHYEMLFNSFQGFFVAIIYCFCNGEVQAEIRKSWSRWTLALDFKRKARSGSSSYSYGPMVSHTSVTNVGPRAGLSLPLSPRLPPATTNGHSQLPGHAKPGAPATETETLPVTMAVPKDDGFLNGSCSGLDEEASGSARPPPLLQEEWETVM

[5] = target: T4, RG form of human PTHR-1 (Homo sapiens, UniProt Q03431); experiment: Radio-ligand competition binding to RG form of human PTHR-1 (COS-7 membranes, 125I-M-PTH(1-15) tracer, high affinity Gαs mutant); details: Table 1; 125I-M-PTH(1-15) tracer, Gαs mutant; read-out: RG IC50, nM, Binding (hPTHR-1)
T4 construct: expressed in transfected cells; host or cells: COS-7
T4 sequence (Q03431 27-593): T1 sequence (Q03431 27-593)
From the text: Data are means (±SEM) of n≥4 experiments, each performed in duplicate.

CC[C@H](C)[C@H](NC(=O)[C@H](CCC(=O)O)NC(=O)[C@H](CO)NC(=O)[C@@H](NC(=O)[C@@H](N)CO)C(C)C)C(=O)N[C@@H](CCC(N)=O)CC(=O)N[C@@H](CC(C)C)C(=O)N[C@@H](CCSC)C(=O)N[C@@H](Cc1c[nH]cn1)C(=O)N[C@@H](CC(N)=O)C(=O)N[C@@H](CC(C)C)C(=O)NCC(=O)N[C@@H](CCCCN)C(=O)N[C@@H](Cc1c[nH]cn1)C(=O)N[C@@H](CC(C)C)C(=O)N[C@@H](CC(N)=O)C(=O)N[C@@H](CO)C(=O)N[C@@H](CCSC)C(=O)N[C@@H](CCC(=O)O)C(=O)N[C@@H](CCCNC(=N)N)C(=O)N[C@H](C(=O)N[C@@H](CCC(=O)O)C(=O)N[C@@H](Cc1c[nH]c2ccccc12)C(=O)N[C@@H](CC(C)C)C(=O)N[C@@H](CCCNC(=N)N)C(=O)N[C@@H](CCCCN)C(=O)N[C@@H](CCCCN)C(=O)N[C@@H](CC(C)C)C(=O)N[C@@H](CCC(N)=O)C(=O)N[C@@H](CC(=O)O)C(=O)N[C@H](C(=O)N[C@@H](Cc1c[nH]cn1)C(=O)N[C@@H](CC(N)=O)C(=O)N[C@@H](Cc1ccccc1)C(N)=O)C(C)C)C(C)C [β^3Gln(6)]
Fold PTH, nM (hPTHR1) ([1]; Table 8): 159.7 | Fold PTH, nM (deINT PTHR1) [2]: 110 | cAMP response PTH2R/PTH1R [3]: 133

CC[C@H](C)[C@H](NC(=O)[C@H](CCC(=O)O)NC(=O)[C@H](CO)NC(=O)[C@@H](NC(=O)[C@@H](N)CO)C(C)C)C(=O)N[C@@H](CCC(N)=O)C(=O)N[C@@H](CC(C)C)C(=O)N[C@@H](CCSC)C(=O)N[C@H]1CNC[C@@H]1C(=O)N[C@@H](CC(N)=O)C(=O)N[C@@H](CC(C)C)C(=O)NCC(=O)N[C@@H](CCCCN)C(=O)N[C@@H](Cc1c[nH]cn1)C(=O)N[C@@H](CC(C)C)C(=O)N[C@@H](CC(N)=O)C(=O)N[C@@H](CO)C(=O)N[C@@H](CCSC)C(=O)N[C@@H](CCC(=O)O)C(=O)N[C@@H](CCCNC(=N)N)C(=O)N[C@H](C(=O)N[C@@H](CCC(=O)O)C(=O)N[C@@H](Cc1c[nH]c2ccccc12)C(=O)N[C@@H](CC(C)C)C(=O)N[C@@H](CCCNC(=N)N)C(=O)N[C@@H](CCCCN)C(=O)N[C@@H](CCCCN)C(=O)N[C@@H](CC(C)C)C(=O)N[C@@H](CCC(N)=O)C(=O)N[C@@H](CC(=O)O)C(=O)N[C@H](C(=O)N[C@@H](Cc1c[nH]cn1)C(=O)N[C@@H](CC(N)=O)C(=O)N[C@@H](Cc1ccccc1)C(N)=O)C(C)C)C(C)C [APC(9)] (H-SVSEIQLM[X13]NLGKHLNSMERVEWLRKKLQDVHNF-NH2; N-terminus assumed)
hPTHR1 EC50, nM (Means ± SEM) ([1]; Table 8, cAMP-inducing potency, N-terminal modifications): No activity | Fold PTH, nM (deINT PTHR1) [2]: 87

CC[C@H](C)[C@H](NC(=O)[C@H](CCC(=O)O)NC(=O)[C@H](CO)NC(=O)[C@@H](NC(=O)C[C@H](C)N)C(C)C)C(=O)N[C@@H](CCC(N)=O)C(=O)N[C@@H](CC(C)C)C(=O)N[C@@H](CCSC)C(=O)N[C@@H](Cc1c[nH]cn1)C(=O)N[C@@H](CC(N)=O)C(=O)N[C@@H](CC(C)C)C(=O)NCC(=O)N[C@@H](CCCCN)C(=O)N[C@@H](Cc1c[nH]cn1)C(=O)N[C@@H](CC(C)C)C(=O)N[C@@H](CC(N)=O)C(=O)N[C@@H](CO)C(=O)N[C@@H](CCSC)C(=O)N[C@@H](CCC(=O)O)C(=O)N[C@@H](CCCNC(=N)N)C(=O)N[C@H](C(=O)N[C@@H](CCC(=O)O)C(=O)N[C@@H](Cc1c[nH]c2ccccc12)C(=O)N[C@@H](CC(C)C)C(=O)N[C@@H](CCCNC(=N)N)C(=O)N[C@@H](CCCCN)C(=O)N[C@@H](CCCCN)C(=O)N[C@@H](CC(C)C)C(=O)N[C@@H](CCC(N)=O)C(=O)N[C@@H](CC(=O)O)C(=O)N[C@H](C(=O)N[C@@H](Cc1c[nH]cn1)C(=O)N[C@@H](CC(N)=O)C(=O)N[C@@H](Cc1ccccc1)C(N)=O)C(C)C)C(C)C [β^3Ala(1)] (H-[β3hA]VSEIQLMHNLGKHLNSMERVEWLRKKLQDVHNF-NH2)
Fold PTH, nM (hPTHR1) ([1]; Table 8): 2.2 | EC50 ([1]; Table 8, cAMP-inducing potency, N-terminal modifications, read-out: hPTHR1 EC50, nM (Means ± SEM)): 0.2 ± 0.09 nM | Fold PTH, nM (deINT PTHR1) [2]: 0.4

CC[C@H](C)[C@H](NC(=O)[C@H](CCC(=O)O)NC(=O)[C@H](CO)NC(=O)[C@@H](NC(=O)[C@@H](N)CO)C(C)C)C(=O)N[C@@H](CCC(N)=O)C(=O)N[C@@H](CC(C)C)C(=O)N[C@@H](CCSC)C(=O)N[C@@H](Cc1c[nH]cn1)C(=O)N[C@@H](CC(N)=O)C(=O)N[C@@H](CC(C)C)C(=O)NCC(=O)N[C@@H](CCCCN)C(=O)N[C@@H](Cc1c[nH]cn1)C(=O)N[C@@H](CC(C)C)C(=O)N[C@@H](CC(N)=O)C(=O)N[C@@H](CO)CC(=O)N[C@@H](CCSC)C(=O)N[C@@H](CCC(=O)O)C(=O)N[C@@H](CCCNC(=N)N)C(=O)N[C@H](CC(=O)N[C@@H](CCC(=O)O)C(=O)N[C@@H](Cc1c[nH]c2ccccc12)C(=O)N[C@@H](CC(C)C)C(=O)N[C@@H](CCCNC(=N)N)CC(=O)N[C@@H](CCCCN)C(=O)N[C@@H](CCCCN)C(=O)N[C@@H](CC(C)C)C(=O)N[C@@H](CCC(N)=O)CC(=O)N[C@@H](CC(=O)O)C(=O)N[C@H](C(=O)N[C@@H](Cc1c[nH]cn1)C(=O)N[C@@H](CC(N)=O)CC(=O)N[C@@H](Cc1ccccc1)C(N)=O)C(C)C)C(C)C [C5]
Max [4]: 48 ± 17 luminescence counts per second × 10−3 | EC50 ([1]; Table 1, GP-2.3 cells, read-out: cAMP (hPTHR-1) EC50): 0.2 nM | cAMP (hPTHR-1) Max ([1]; Table 1, luminescence counts per second relative to PTH(1-34), 12-16 minutes after ligand addition): 1.01 | Max ([1]; Table 6, GP-2.3 cells, 12-16 minutes after ligand addition, mean ± SEM): 219 ± 39 luminescence counts per second × 10^−3 | IC50 [5]: 0.4 nM
